Key:
[1] = test system: myelin basic protein (MBP); assay: Induction of myelin basic protein (MBP) production in MO3-13 cells, slot blot with anti-MBP antibody; assay type: cell-based, human; settings: with and without cuprizone; for relative MBP binding compared with vehicle control: MO3-13 cells, p<0.0001, FIG. 2; for relative MBP binding (anti-MBP antibody): MO3-13 whole cell extracts
Procedure: Whole cell extracts of MO3-13 cells were prepared using 6 M urea. An aliquot of 100 μL was removed and diluted with an equal volume of 6 M urea. A 5 μL aliquot was removed and quantitated for protein levels. Total protein concentrations were determined using the BioRad protein assay method at 595 nm. Total protein in the whole cell extracts was determined and a ratio of recovered protein was used to calculate the relative amount of MBP in the whole cell extracts. Whole cell extracts were diluted to 0.1 mg/mL. Extracts containing 2.5 μg of protein were applied onto nitrocellulose membrane in a slot blotter using a vacuum method to draw the sample onto the membrane. The non-protein sites on the membrane were blocked with 2% ECL blocking reagent diluted in PBS-Tween20. Primary anti-Bovine MBP was diluted in the same block solution at 300×. The primary antibody was incubated one hour at room temperature with gentle shaking. The blot was developed using enhanced ECL (GE Healthcare) method. Image of bound antibody were captured using Image Lab software driving a Bio-Rad ChemiDoc XRS+ image capture system. The data was graphically represented using Graph Pad Prism software.

[2] = test system: C57/B6 mice; assay: Cuprizone model of demyelination in mice: brain myelination scores; assay type: in vivo
Procedure: (§1) The ability of compound A1 to effect the demyelination process was evaluated in a cuprizone model of demyelination in mice. Thirty-six male C57/B6 mice aged 7-8 weeks were acclimated for 1 week prior to study commencement and housed 2 mice per cage. Mice in Group 1 received control chow without cuprizone, and all other mice were fed mouse diet containing 0.2% cuprizone for 5 weeks. Food was changed every other day, body and food weights were obtained daily. All cuprizone and control food was stored in vacuum containers and stored frozen until use.
(§2) Dosing solutions were prepared fresh on each day of dosing. Compound A1 was first dissolved in DMSO in a volume of 10% of the final volume, followed by addition of solutol HS-15 in a volume of 10% of the final volume and a solution of 10% hydroxypropyl-β-cyclodextrin in a volume of 80% of the final volume. Unless otherwise noted, all test articles were administered in a volume of 0.1 mL/10 g body weight.
(§3) During this process, mice received either vehicle or compound A1 at 50 mg/kg or 100 mg/kg via intraperitoneal injection daily. At the end of 5 weeks, the mice were sacrificed and the brain histology of each group compared to controls that had not received cuprizone. Statistical differences between treatment groups were determined using Mann-Whitney Rank Sum or ANOVA tests with a critical value of 0.05.
(§4) Evaluation of the myelin content of the brains was focused on three areas—the rostral corpus callosum, the dorsal corpus callosum and the cerebellum. The extent of demyelination in both sagittal sections was determined by a board certified veterinary pathologist blinded to animal treatment. Percent demyelination was scored as follows: demyelination ranging from 0 to 10% of the total anatomical structure was scored as 0; demyelination ranging from 11 to 30% of the total anatomical structure was scored as 1; demyelination ranging from 31 to 60% of the total anatomical structure was scored as 2; demyelination ranging from 61 to 90% of the total anatomical structure was scored as 3; and demyelination ranging from 91 to 100% of the total anatomical structure was scored as 4. The extent of MBP staining intensity was based on a 1-4 scale, where 4 was the highest level of staining seen (100%).

[3] = test system: myelin basic protein (MBP); assay: Cuprizone model of demyelination in mice: MBP immunohistochemistry staining score; assay type: in vivo
Procedure: as §1, §2, §3, §4
In addition, immunohistochemistry was performed for myelin basic protein (MBP), and slides were analyzed for the intensity of MBP staining in the same regions. The mean rostral corpus callosum MBP staining score for the control groups was 4. In the vehicle treated group receiving cuprizone chow, the mean rostral corpus callosum m MBP staining score was 2.9. In the group receiving cuprizone chow and compound A1 at 50 mg/kg, the mean rostral corpus callosum MBP staining score was 3.2. Additional analysis of the rostral corpus callosum MBP staining was conducted using an ANOVA test.

[4] = Cuprizone model in mice: body weight, deaths and toxicity; assay type: in vivo
Procedure: as §1, §2, §3
All animals were weighed every day in order to assess possible differences in animal weight among treatment groups as an indication of possible toxicity resulting from the treatments. Animals with a weight loss of more than 20% of their starting weight were euthanized. Mice with weight loss of more than 15% of their starting weight were not treated again until weight loss recovered to less than 5% of their starting weight. […] One animal in the cuprizone/vehicle group was also euthanized on Day 20 due to poor condition and weight loss. All remaining mice survived until the end of the study.

Structure (SMILES) | relative MBP binding compared with vehicle control [1] | relative MBP binding (anti-MBP antibody) [1] | mean cerebellar myelination score ([2]; 50 mg/kg IP QD, cuprizone chow 5 weeks, not significant) | mean rostral corpus callosum myelination score ([2]; 50 mg/kg IP QD, cuprizone chow 5 weeks, not significant vs vehicle) | mean caudal corpus callosum myelination score ([2]; 50 mg/kg IP QD, cuprizone chow 5 weeks, p=0.0012 vs vehicle) | demyelination in the rostral corpus callosum vs vehicle treated group ([2]; cuprizone mice) | demyelination in the dorsal corpus callosum vs mice receiving vehicle ([2]; cuprizone mice, p=0.0012) | mean cerebellum MBP staining score ([3]; 50 mg/kg IP QD, cuprizone chow 5 weeks, 1-4 scale, 4 highest, not significant) | mean rostral corpus callosum MBP staining score ([3]; 50 mg/kg IP QD, cuprizone chow 5 weeks, 1-4 scale, 4 highest, not significant vs vehicle) | mean caudal corpus callosum MBP staining score ([3]; 50 mg/kg IP QD, cuprizone chow 5 weeks, 1-4 scale, 4 highest, p=0.0064 vs vehicle) | MBP expression in the rostral corpus callosum vs vehicle treated group ([3]; cuprizone mice) | MBP expression in the dorsal corpus callosum vs mice receiving vehicle ([3]; cuprizone mice, p=0.0064) | average loss of starting weight during the study ([4]; 50 mg/kg IP QD, cuprizone food, 5 weeks) | toxicity ([4]; 50 mg/kg daily, cuprizone treatment) | mice that suddenly started to lose weight and die ([4]; 100 mg/kg IP QD, cuprizone food, between Days 20 and 24, despite discontinuation of dosing)
Cc1cc(C(F)(F)F)cc(=S)[nH]1 [A3, 6-methyl-4-trifluoromethylpyridine-2(1H)-thione] | significantly increased above vehicle control | elevated relative MBP binding | – | – | – | – | – | – | – | – | – | – | – | – | –
Cc1cc(C2CCCCC2)[nH]c(=S)c1 [compound A1, 6-cyclohexyl-4-methylpyridine-2(1H)-thione] | significantly increased above vehicle control | elevated relative MBP binding | 3.2 | 2.1 | 2.1 | no statistically significant differences | significantly less demyelination | 3.8 | 3.2 | 3.1 | no statistically significant differences | significantly less demyelination | 10.6% | no evidence of toxicity beyond that seen in the vehicle group | nine often mice
Cc1cc(CC(C)CC(C)(C)C)[nH]c(=S)c1 (stereo not drawn) [compound A2, 4-methyl-6-(2,4,4-trimethylpentyl)pyridine-2(1H)-thione] | – | elevated relative MBP binding | – | – | – | – | – | – | – | – | – | – | – | – | –

Source: patent US10654805B2, “Pyridinethiones, pharmaceutical compositions thereof, and their therapeutic use for treating a proliferative, inflammatory, neurodegenerative, or immune-mediated disease” (BioTheryX, Inc., priority 2016, dated 2020)
